Results on 16 compounds are retold here after US9586942B2, “Aminotetraline and aminoindane derivatives, pharmaceutical compositions containing them, and their use in therapy” (AbbVie Deutschland GmbH & Co. KG, priority 2013, dated 2017).

One series concerns the target human GlyT1c transporter (Homo sapiens (Human), UniProt P48067). Description: Radioligand binding assay using recombinant CHO cell membranes expressing human GlyT1. The note with it: examples marked * tested as fumarate salts, read-out: radioligand binding Kiapp. The procedure: 2. Radioligand binding assays using recombinant CHO cell membranes expressing human GlyT1:
Radioligand binding to human GlyT1c transporter-expressing membranes was determined as described in Mezler et al., Molecular Pharmacology 74:1705-1715, 2008.

A short description of series [1]: Metabolic stability in human liver microsomes. In kind it is in vitro ADME. The note with it: human liver microsomes 0.25 mg protein/ml, 0.5 μM test substance, NADPH, 37° C., pH 7.4; scaled microsomal clearance; examples marked * tested as fumarate salts. The method, then:
Metabolic stability was determined as follows:
0.5 μM test substance was preincubated together with human liver microsomes (0.25 mg of microsomal protein/ml) in 0.05 M potassium phosphate buffer of pH 7.4 in microtiter plates at 37° C. for 5 min. The reaction was started by adding NADPH (1.0 mM). After 0, 5, 10, 15, 20 and 30 min the reaction was stopped and cooled with twice the amount of quench solution consisting of acetonitrile/methanol 1:1, and containing 0.2 μM carbutamide. The samples were frozen until analyzed. The remaining concentration of undegraded test substance was determined by LC MSMS. The half-life (T1/2) was determined from the gradient of the signal of test substance/unit time plot, allowing to calculate the half-life of the test substance, assuming first order kinetics, from the decrease in the concentration of the compound with time. The microsomal clearance (mClint) was calculated as follows: mClint=((ln(2)/t 1/2)/Microsomal Protein Concentration (mg/ml))*1000, leading to the unit of uLmin/mg. The scaled clearance (mClin_scaled) was calculated as mCLint_scaled=m CLint*(Microsomal Yield (mg/kg BW))/1000000*60, leading to the units L/hr/kg. The Microsomal Yield is defined by the specifics of the used microsomes. Calculations were modified from references: Di, The Society for Biomolecular Screening, 2003, 453-462; Obach, DMD, 1999 vol 27. N 11, 1350-1359.
In general terms: Liver microsomes are a subcellular fraction often used to study metabolism.

pKi: −log10 of the molar value. Bounds are passed on as bounds.

human GlyT1c transporter, sequence (P48067 whole entry): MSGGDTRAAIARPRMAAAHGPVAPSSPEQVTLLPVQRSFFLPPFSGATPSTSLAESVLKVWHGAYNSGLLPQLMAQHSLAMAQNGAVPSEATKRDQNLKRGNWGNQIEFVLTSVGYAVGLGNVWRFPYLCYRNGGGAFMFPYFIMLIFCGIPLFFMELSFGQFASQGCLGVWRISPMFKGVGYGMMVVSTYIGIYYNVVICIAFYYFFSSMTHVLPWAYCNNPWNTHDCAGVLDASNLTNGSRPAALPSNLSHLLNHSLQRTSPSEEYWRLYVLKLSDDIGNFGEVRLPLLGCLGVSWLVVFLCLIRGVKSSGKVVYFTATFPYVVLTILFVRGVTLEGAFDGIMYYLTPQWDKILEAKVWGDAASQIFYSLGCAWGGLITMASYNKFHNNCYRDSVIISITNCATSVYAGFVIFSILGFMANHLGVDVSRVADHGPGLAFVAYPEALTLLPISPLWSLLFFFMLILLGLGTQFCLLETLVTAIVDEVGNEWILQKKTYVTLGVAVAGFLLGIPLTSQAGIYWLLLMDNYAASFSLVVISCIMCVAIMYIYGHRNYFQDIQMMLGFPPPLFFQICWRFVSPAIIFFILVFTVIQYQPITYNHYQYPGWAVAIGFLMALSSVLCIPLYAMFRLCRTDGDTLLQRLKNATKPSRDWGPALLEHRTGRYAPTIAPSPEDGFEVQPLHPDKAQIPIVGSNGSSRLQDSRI

With `Cn1cnc(S(=O)(=O)NC2CN(c3ccc4c(c3)[C@@H](Cc3ccccc3)[C@@H](N3CCC3)CC4)C2)c1` [Example 1, N-(1-((7S,8R)-7-(azetidin-1-yl)-8-benzyl-5,6,7,8-tetrahydronaphthalen-2-yl)azetidin-3-yl)-1-methyl-1H-imidazole-4-sulfonamide], the pKi at human GlyT1c transporter is ≥ 8.00. The “human mCl” value in series [1] was “≦5 L/h/Kg”.
Consider `CS(=O)(=O)NC1CN(c2ccc3c(c2)[C@@H](Cc2ccccc2)[C@@H](N2CCC2)CC3)C1` [Example 3, N-(1-((7S,8R)-7-(azetidin-1-yl)-8-benzyl-5,6,7,8-tetrahydronaphthalen-2-yl)azetidin-3-yl)methanesulfonamide], for which the pKi on human GlyT1c transporter was ≥ 6.00. For the same compound, the “human mCl” value in series [1] is reported as “≦5 L/h/Kg”.
The matching figures for `CCS(=O)(=O)NC1CN(c2ccc3c(c2)[C@@H](Cc2ccccc2)[C@@H](N2CCC2)CC3)C1` [Example 4, N-(1-((7S,8R)-7-(azetidin-1-yl)-8-benzyl-5,6,7,8-tetrahydronaphthalen-2-yl)azetidin-3-yl)ethanesulfonamide]: ≥ 7.00 and “≦5 L/h/Kg”.
The matching figures for `CCCS(=O)(=O)NC1CN(c2ccc3c(c2)[C@@H](Cc2ccccc2)[C@@H](N2CCC2)CC3)C1` [Example 5, N-(1-((7S,8R)-7-(azetidin-1-yl)-8-benzyl-5,6,7,8-tetrahydronaphthalen-2-yl)azetidin-3-yl)propane-1-sulfonamide]: ≥ 8.00 and “≦5 L/h/Kg”.
The like results for `O=S(=O)(NC1CN(c2ccc3c(c2)[C@@H](Cc2ccccc2)[C@@H](N2CCC2)CC3)C1)c1ccc2c(c1)OC(F)(F)O2` [Example 6, N-(1-((7S,8R)-7-(azetidin-1-yl)-8-benzyl-5,6,7,8-tetrahydronaphthalen-2-yl)azetidin-3-yl)-2,2-difluorobenzo[d][1,3]dioxole-5-sulfonamide] were, in that order, ≥ 5.00 and “≦500 L/h/Kg”.
Consider `Cn1cnc(S(=O)(=O)NC2(C)CN(c3ccc4c(c3)[C@@H](Cc3ccccc3)[C@@H](N3CCC3)CC4)C2)c1` [Example 7, N-(1-((7S,8R)-7-(azetidin-1-yl)-8-benzyl-5,6,7,8-tetrahydronaphthalen-2-yl)-3-methylazetidin-3-yl)-1-methyl-1H-imidazole-4-sulfonamide], for which the pKi on human GlyT1c transporter is ≥ 7.00. Besides, the “human mCl” value in series [1] is given as “≦5 L/h/Kg”.
As to `CCS(=O)(=O)NC1(C)CN(c2ccc3c(c2)[C@@H](Cc2ccccc2)[C@@H](N2CCC2)CC3)C1` [Example 8, N-(1-((7S,8R)-7-(azetidin-1-yl)-8-benzyl-5,6,7,8-tetrahydronaphthalen-2-yl)-3-methylazetidin-3-yl)ethanesulfonamide], the pKi on human GlyT1c transporter was ≥ 5.00. Further, the “human mCl” value in series [1] was “≦5 L/h/Kg”.
The matching figures for `Cn1cnc(S(=O)(=O)N[C@@H]2CCN(c3ccc4c(c3)[C@@H](Cc3ccccc3)[C@@H](N3CCC3)CC4)C2)c1` [Example 9, N-((R)-1-((7S,8R)-7-(azetidin-1-yl)-8-benzyl-5,6,7,8-tetrahydronaphthalen-2-yl)pyrrolidin-3-yl)-1-methyl-1H-imidazole-4-sulfonamide]: ≥ 7.00 and “≦5 L/h/Kg”.
The matching figures for `Cn1cnc(S(=O)(=O)N[C@H]2CCN(c3ccc4c(c3)[C@@H](Cc3ccccc3)[C@@H](N3CCC3)CC4)C2)c1` [Example 10, N-((S)-1-((7S,8R)-7-(azetidin-1-yl)-8-benzyl-5,6,7,8-tetrahydronaphthalen-2-yl)pyrrolidin-3-yl)-1-methyl-1H-imidazole-4-sulfonamide]: ≥ 6.00 and “≦5 L/h/Kg”.
Consider `Cn1cnc(S(=O)(=O)NC2CCN(c3ccc4c(c3)[C@@H](Cc3ccccc3)[C@@H](N3CCC3)CC4)CC2)c1` [Example 11, N-(1-((7S,8R)-7-(azetidin-1-yl)-8-benzyl-5,6,7,8-tetrahydronaphthalen-2-yl)piperidin-4-yl)-1-methyl-1H-imidazole-4-sulfonamide], for which the pKi at human GlyT1c transporter is ≥ 7.00. Further, the “human mCl” value in series [1] is on record as “≦5 L/h/Kg”.
Take `Cn1cnc(S(=O)(=O)N[C@H]2C[C@H](c3ccc4c(c3)[C@@H](Cc3ccccc3)[C@@H](N3CCC3)CC4)C2)c1` [Example 12, N-((1R,3r)-3-((7S,8R)-7-(azetidin-1-yl)-8-benzyl-5,6,7,8-tetrahydronaphthalen-2-yl)cyclobutyl)-1-methyl-1H-imidazole-4-sulfonamide]: the pKi at human GlyT1c transporter is ≥ 8.00. In addition, the “human mCl” value in series [1] is “≦5 L/h/Kg”.
The matching figures for `Cn1cnc(S(=O)(=O)N[C@H]2C[C@@H](c3ccc4c(c3)[C@@H](Cc3ccccc3)[C@@H](N3CCC3)CC4)C2)c1` [Example 13, N-((1 S,3s)-3-((7S,8R)-7-(azetidin-1-yl)-8-benzyl-5,6,7,8-tetrahydronaphthalen-2-yl)cyclobutyl)-1-methyl-1H-imidazole-4-sulfonamide]: ≥ 7.00 and “≦5 L/h/Kg”.
The matching figures for `CCCS(=O)(=O)N[C@H]1CCN(c2ccc3c(c2)[C@@H](Cc2ccccc2)[C@@H](N2CCC2)CC3)C1=O` [Example 14, N-((S)-1-((7S,8R)-7-(azetidin-1-yl)-8-benzyl-5,6,7,8-tetrahydronaphthalen-2-yl)-2-oxopyrrolidin-3-yl)propane-1-sulfonamide]: ≥ 7.00 and “≦5 L/h/Kg”.
The matching figures for `Cn1cnc(S(=O)(=O)NC2CN(c3ccc4c(c3)[C@@H](Cc3ccccc3)[C@@H](N3CC5CC5C3)CC4)C2)c1` (stereo partly drawn) [Example 15, N-(1-((7S,8R)-8-benzyl-7-(3-azabicyclo[3.1.0]hexan-3-yl)-5,6,7,8-tetrahydronaphthalen-2-yl)azetidin-3-yl)-1-methyl-1H-imidazole-4-sulfonamide]: ≥ 7.00 and “≦5 L/h/Kg”.
Regarding `Cn1cc(S(=O)(=O)NC2CN(c3ccc4c(c3)[C@@H](Cc3ccccc3)[C@@H](N3CC5CC5C3)CC4)C2)nn1` (stereo partly drawn) [Example 16, N-(1-((7S,8R)-8-benzyl-7-(3-azabicyclo[3.1.0]hexan-3-yl)-5,6,7,8-tetrahydronaphthalen-2-yl)azetidin-3-yl)-1-methyl-1H-1,2,3-triazole-4-sulfonamide], the pKi on human GlyT1c transporter is ≥ 8.00. Moreover, the “human mCl” value in series [1] is “≦5 L/h/Kg”.
The like results for `CCCS(=O)(=O)NC1CN(c2ccc3c(c2)[C@@H](Cc2ccccc2)[C@@H](N2CC4CC4C2)CC3)C1` (stereo partly drawn) [Example 17, N-(1-((7S,8R)-8-benzyl-7-(3-azabicyclo[3.1.0]hexan-3-yl)-5,6,7,8-tetrahydronaphthalen-2-yl)azetidin-3-yl)propane-1-sulfonamide] were, in that order, ≥ 8.00 and “≦5 L/h/Kg”.
